One assay addresses human (hACC2) (Homo sapiens, UniProt O00763). Nature of the assay: In vitro ACC inhibition assay (ADP-Glo), hACC2. In kind it is biochemical. To be noted: 5 nM ACC2, 20 μM ATP, 20 μM acetyl-CoA. As for the experimental part:
The detailed procedure is as follows. […] 10 μL ADP glo reagent was added. […] 20 μL kinase detection reagent was added.

Another assay relates to C. albicans. Nature of the assay: Antifungal Activity Assay (broth microtiter MIC), C. albicans. It is filed as cell-based, Candida albicans. As to conditions: 3 replicates, MIC recorded at 48 h; for MIC: Candida albicans, ATCC90028, 48 h, ATCC 90028, read-out: MIC, C. albicans ATCC 90028. In short, it runs like this: (§1)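 CLSI M27-A3 broth microdilution in RPMI 1640+MOPS, final inoculum 2.5×10^3 CFU/mL from overnight Sabouraud cultures grown at 35 °C. MIC read visually at 48 h against growth control.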

In a further assay the test system is C. krusei. Briefly: Antifungal Activity Assay (broth microtiter MIC), C. krusei. It is filed as cell-based, Candida krusei. To be noted: 3 replicates, MIC recorded at 48 h; for MIC: Pichia kudriavzevii, ATCC6258, 48 h, ATCC 6258, read-out: MIC, C. krusei ATCC 6258. The procedure, abridged: as §1
Another assay concerns C. parapsilosis. Briefly: Antifungal Activity Assay (broth microtiter MIC), C. parapsilosis. It is filed as cell-based, Candida parapsilosis. To be noted: 3 replicates, MIC recorded at 48 h; for MIC: Lodderomyces parapsilosis, ATCC22019, 48 h, ATCC 22019, read-out: MIC, C. parapsilosis ATCC 22019. The procedure, abridged: as §1
A further assay deals with Botrtyis cinerea (Bc). Briefly: Growth inhibition assay of fungal pathogens, Bc. In kind it is cell-based. As to conditions: 48 h. How it is done:
(§2) Compounds of the present invention were evaluated in a growth inhibition assay to determine the ability to control the growth of fungal pathogens, such as Botrtyis cinerea (Bc), Collectotrichum graminicola (Cg), Diplodia maydis (Dm), Fusarium moniliforme (Fm), Fusarium virguliforme (Fv), Phytophthora capsici (Pc), Rhizoctonia solani (Rs), and Septoria tritici (St).
(§3) Compounds to be tested were dissolved in DMSO at 2.5 mg/ml to produce compound stock solutions (“stocks”). Stocks were diluted with DMSO by a five-fold dilution in a 96-well stock plate, and two sets of final concentrations of 50, 10, and 2 ppm or 2, 0.4, and 0.08 ppm were obtained in vitro. A set of positive controls was also prepared, with various concentrations of Soraphen (2, 0.4, and 0.08 ppm), Metalaxyl (1.1, 0.22, and 0.04 ppm), and Metconazole (2, 0.4, and 0.08 ppm or 0.2, 0.04, and 0.008 ppm) after the five-fold dilutions. Negative controls on each plate included 2% DMSO, water, and a blank (media+2% DMSO).
(§4) Fungal spores were isolated from previously sub-cultured plates of Botrtyis cinerea (Bc), Collectotrichum graminicola (Cg), Diplodia maydis (Dm), Fusarium moniliforme (Fm), Fusarium virguliforme (Fv), Phytophthora capsici (Pc), and Septoria tritici (St). The isolated spores were diluted to individual concentrations with a 17% V8 liquid media. For Rhizoctonia solani (Rs) and Pythium irregulare, 1.5 mm mycelial plugs were used in place of spores and/4 Potato Dextrose Broth (PDB) was used for dilution. The spore concentrations and plug sizes were based on growth curves generated at 48 hours for each pathogen.
(§5) In a second 96-well plate, the spores or mycelial plugs, media, diluted compound solutions, and controls were combined. Once the compound was added, a true final concentration of compound in each well was measured by an OD600 reading, which adjusted for any compound precipitation that might have occurred in the well. Plate readings were repeated at both 24 and 48 hours. The blank negative control was used as a background subtraction. Additional visual ratings were performed at both 24 and 48 hours for checking on precipitation and confirming efficacy. Visual and OD600 ratings of the compounds at 48 hours were compared to the 2% DMSO negative control, and the percent of pathogen growth inhibition was determined based on those values.

In assay [1] the test system is Collectotrichum graminicola (Cg). Briefly: Growth inhibition assay of fungal pathogens, Cg. It is filed as cell-based. As to conditions: 48 h. How it is done:
as §2, §3, §4, §5

The test system of another assay is Diplodia maydis (Dm). Nature of the assay: Growth inhibition assay of fungal pathogens, Dm. It is filed as cell-based. To be noted: Stenocarpella maydis, 48 h. As for the experimental part: as §2, §3, §4, §5
The subject of assay [2] is Fusarium moniliforme (Fm). Nature of the assay: Growth inhibition assay of fungal pathogens, Fm. In kind it is cell-based. To be noted: for IC90: Fusarium verticillioides, 48 h, read-out: Concentration at 90% Inhibition Fm. As for the experimental part:
as §2, §3, §4, §5

Assay [3] relates to Fusarium virguliforme (Fv). Briefly: Growth inhibition assay of fungal pathogens, Fv. In kind it is cell-based. As to conditions: 48 h. How it is done:
as §2, §3, §4, §5

For assay [4], the system named is Phytophthora capsici (Pc). Nature of the assay: Growth inhibition assay of fungal pathogens, Pc. To be noted: 48 h. It is filed as cell-based. As for the experimental part: as §2, §3, §4, §5
Another assay has as its system Rhizoctonia solani (Rs). Nature of the assay: Growth inhibition assay of fungal pathogens, Rs. In kind it is cell-based. As to conditions: 48 h.
A further assay concerns Septoria tritici (St). Briefly: Growth inhibition assay of fungal pathogens, St. As to conditions: Zymoseptoria tritici, 48 h. In kind it is cell-based. How it is done: as §2, §3, §4, §5
Another assay concerns the target fungal (fACC2) (UniProt Q00955). To be noted: read-out: fACC2 (in vitro ACC2 Inhibition Assay, IC50), ADP-Glo, 5 nM ACC2, 20 μM ATP, 20 μM acetyl-CoA. Background: ADP-Glo turns the ADP formed in a reaction into a luminescent signal.

≈ marks a conversion by molar mass, not a printed value. Like-named read-outs stand apart in the source and are kept apart here.

Sequence of fungal (fACC2) (Q00955 whole entry): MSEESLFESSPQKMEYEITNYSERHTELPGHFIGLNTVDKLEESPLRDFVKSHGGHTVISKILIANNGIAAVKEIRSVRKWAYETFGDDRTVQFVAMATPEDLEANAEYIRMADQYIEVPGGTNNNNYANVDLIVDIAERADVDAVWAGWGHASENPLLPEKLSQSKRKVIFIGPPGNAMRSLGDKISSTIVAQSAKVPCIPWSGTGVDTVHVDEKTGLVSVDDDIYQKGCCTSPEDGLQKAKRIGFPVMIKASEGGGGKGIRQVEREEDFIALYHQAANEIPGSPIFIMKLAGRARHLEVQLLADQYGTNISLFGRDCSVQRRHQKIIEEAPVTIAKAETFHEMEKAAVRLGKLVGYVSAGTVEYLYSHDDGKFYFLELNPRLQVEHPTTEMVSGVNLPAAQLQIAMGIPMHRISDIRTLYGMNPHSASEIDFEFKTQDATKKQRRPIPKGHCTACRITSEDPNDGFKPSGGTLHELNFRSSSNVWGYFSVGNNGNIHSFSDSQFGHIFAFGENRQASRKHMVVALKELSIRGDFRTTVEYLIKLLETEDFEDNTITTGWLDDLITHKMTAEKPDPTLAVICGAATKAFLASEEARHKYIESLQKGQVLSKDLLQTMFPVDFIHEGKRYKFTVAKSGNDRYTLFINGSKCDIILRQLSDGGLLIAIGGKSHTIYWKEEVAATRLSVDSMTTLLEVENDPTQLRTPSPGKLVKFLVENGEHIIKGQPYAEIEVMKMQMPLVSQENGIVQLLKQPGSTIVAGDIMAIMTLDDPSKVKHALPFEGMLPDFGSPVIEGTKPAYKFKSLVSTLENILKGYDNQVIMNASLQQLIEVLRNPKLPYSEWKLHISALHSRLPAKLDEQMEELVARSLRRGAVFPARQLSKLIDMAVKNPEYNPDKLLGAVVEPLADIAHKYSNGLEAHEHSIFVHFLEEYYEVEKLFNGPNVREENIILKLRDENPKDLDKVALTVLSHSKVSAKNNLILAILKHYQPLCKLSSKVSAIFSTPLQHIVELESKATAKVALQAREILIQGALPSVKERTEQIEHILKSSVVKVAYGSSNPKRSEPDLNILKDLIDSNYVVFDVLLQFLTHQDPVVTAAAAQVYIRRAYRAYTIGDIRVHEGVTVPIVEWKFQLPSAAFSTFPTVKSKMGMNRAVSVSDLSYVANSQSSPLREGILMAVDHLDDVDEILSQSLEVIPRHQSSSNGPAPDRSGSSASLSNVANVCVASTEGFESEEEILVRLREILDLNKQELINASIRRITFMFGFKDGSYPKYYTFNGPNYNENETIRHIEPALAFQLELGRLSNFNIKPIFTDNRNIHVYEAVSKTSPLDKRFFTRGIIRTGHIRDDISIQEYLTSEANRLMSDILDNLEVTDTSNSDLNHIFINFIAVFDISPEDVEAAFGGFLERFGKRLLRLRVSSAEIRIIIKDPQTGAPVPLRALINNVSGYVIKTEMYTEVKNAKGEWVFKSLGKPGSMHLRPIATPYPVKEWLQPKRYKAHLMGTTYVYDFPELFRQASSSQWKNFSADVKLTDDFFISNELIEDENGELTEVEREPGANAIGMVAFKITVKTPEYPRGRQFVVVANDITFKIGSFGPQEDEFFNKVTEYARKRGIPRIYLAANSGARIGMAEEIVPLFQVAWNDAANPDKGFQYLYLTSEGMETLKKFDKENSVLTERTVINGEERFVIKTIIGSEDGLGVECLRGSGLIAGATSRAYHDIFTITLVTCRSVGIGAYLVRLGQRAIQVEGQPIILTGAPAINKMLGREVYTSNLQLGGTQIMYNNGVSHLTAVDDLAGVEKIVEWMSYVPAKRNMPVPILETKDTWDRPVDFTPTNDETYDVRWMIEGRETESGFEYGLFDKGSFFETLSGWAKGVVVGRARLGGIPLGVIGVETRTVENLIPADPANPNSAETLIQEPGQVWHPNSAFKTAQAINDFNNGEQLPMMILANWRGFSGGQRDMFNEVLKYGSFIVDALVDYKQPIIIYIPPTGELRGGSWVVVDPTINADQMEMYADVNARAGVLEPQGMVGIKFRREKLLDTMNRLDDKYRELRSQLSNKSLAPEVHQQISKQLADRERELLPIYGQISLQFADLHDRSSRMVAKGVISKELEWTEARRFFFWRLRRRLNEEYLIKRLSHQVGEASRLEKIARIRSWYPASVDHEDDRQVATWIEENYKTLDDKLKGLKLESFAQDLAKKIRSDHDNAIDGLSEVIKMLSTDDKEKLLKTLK
Sequence of human (hACC2) (O00763 whole entry): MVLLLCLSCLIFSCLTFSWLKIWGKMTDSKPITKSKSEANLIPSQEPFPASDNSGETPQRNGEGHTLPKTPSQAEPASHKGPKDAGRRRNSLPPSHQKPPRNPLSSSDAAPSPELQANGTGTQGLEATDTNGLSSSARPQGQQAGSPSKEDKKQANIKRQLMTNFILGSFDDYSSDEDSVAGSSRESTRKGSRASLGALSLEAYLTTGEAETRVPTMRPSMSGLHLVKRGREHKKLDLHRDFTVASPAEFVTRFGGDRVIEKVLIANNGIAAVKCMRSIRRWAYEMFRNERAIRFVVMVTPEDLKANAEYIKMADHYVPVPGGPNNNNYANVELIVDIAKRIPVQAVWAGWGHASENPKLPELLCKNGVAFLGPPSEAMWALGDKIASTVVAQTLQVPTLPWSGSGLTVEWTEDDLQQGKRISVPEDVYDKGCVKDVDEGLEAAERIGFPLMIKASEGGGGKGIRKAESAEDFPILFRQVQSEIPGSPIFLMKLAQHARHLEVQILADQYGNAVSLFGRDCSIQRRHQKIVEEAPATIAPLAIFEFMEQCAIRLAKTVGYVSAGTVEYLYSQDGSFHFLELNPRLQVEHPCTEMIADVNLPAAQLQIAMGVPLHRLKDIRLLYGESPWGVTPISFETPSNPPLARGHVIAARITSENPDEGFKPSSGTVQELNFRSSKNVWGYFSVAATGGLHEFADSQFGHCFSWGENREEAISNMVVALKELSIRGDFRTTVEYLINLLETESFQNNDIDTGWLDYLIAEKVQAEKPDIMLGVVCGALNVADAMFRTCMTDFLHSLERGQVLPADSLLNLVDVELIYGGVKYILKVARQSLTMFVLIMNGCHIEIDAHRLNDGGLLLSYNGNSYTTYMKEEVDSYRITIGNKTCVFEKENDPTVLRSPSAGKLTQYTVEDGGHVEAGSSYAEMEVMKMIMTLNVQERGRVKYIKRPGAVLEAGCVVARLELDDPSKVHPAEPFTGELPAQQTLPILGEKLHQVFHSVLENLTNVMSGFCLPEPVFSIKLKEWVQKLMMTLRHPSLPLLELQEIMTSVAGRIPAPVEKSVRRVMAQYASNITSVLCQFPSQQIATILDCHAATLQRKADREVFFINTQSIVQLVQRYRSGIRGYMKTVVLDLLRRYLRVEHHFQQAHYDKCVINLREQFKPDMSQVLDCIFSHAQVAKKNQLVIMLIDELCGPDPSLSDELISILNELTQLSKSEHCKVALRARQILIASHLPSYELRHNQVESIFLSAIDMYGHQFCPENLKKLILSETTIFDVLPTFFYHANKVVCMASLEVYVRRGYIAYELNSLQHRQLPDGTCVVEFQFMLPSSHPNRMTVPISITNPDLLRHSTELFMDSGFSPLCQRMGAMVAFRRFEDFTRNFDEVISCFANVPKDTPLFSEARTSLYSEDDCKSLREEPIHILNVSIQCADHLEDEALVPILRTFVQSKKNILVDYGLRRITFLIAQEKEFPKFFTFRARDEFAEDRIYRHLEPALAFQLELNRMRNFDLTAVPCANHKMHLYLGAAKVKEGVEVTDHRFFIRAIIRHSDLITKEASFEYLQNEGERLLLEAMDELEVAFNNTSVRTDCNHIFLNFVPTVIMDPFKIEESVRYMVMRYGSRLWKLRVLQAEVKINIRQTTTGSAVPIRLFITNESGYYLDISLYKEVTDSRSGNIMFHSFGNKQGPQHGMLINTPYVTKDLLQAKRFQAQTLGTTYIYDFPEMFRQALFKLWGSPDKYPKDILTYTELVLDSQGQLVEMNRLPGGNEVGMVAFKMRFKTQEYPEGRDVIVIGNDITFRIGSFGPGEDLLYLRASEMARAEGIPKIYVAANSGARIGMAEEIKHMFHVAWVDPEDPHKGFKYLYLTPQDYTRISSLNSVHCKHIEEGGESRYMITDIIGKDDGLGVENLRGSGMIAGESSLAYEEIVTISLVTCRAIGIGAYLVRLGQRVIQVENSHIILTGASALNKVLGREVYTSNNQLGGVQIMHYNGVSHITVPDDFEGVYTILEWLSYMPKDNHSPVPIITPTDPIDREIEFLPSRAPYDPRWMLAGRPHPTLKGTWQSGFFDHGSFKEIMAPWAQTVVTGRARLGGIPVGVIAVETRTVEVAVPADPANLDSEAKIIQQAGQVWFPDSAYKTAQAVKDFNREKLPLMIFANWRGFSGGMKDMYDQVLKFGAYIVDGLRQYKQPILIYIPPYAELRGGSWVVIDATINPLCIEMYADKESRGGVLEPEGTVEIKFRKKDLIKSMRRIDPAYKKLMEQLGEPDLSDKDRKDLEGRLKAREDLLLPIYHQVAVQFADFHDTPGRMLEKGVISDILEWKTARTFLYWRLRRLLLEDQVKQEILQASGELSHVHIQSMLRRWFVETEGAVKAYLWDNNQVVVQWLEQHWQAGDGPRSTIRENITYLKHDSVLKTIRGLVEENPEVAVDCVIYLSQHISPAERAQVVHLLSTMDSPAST

By IC50 is commonly meant the concentration needed to halve the response being measured. As for `COCCO[C@@H](Cn1c(=O)n([C@@H](C)C(=O)NC(C)C)c(=O)c2c(C)c(-n3nccn3)sc21)c1cc(F)ccc1OC` [Compound I-66, (S)-2-(1-((R)-2-(5-fluoro-2-methoxyphenyl)-2-(2-methoxy-ethoxy)ethyl)-5-methyl-2,4-dioxo-6-(2H-1,2,3-triazol-2-yl)-1,4-dihydrothieno[2,3-d]pyrimidin-3(2H)-yl)-N-isopropylpropanamide], the 50% inhibitory concentration (IC50) fell in the range of 5 to 10 nM against human (hACC2) (Table 2a); 5 to 10 nM at human (hACC2) (Table 2b, additional results); 1 to 5 nM at fungal (fACC2) (Table 2a); 1 to 5 nM at fungal (fACC2) (Table 2b, additional results). Besides, the “MIC, C. albicans ATCC 90028” value is recorded as “C (MIC of 2.1-4.0 μg/mL)” against C. albicans (Table 3a) and “D (MIC of >4.01 μg/mL)” in the assay with C. albicans (Table 3b (additional results)). The “MIC, C. krusei ATCC 6258” value was “B (MIC of 1.1-2.0 μg/mL)” in the assay with C. krusei (Table 3a) and “C (MIC of 2.01-4.0 μg/mL)” with C. krusei (Table 3b (additional results)). Moreover, the “MIC, C. parapsilosis ATCC 22019” value is “B (MIC of 1.1-2.0 μg/mL)” with C. parapsilosis (Table 3a) and “B (MIC of 1.01-2.0 μg/mL)” with C. parapsilosis (Table 3b (additional results)). In addition, the IC90 in the assay on Botrtyis cinerea (Bc) (read-out: Concentration at 90% Inhibition Bc, Botrtyis cinerea, growth inhibition at 48 hours vs 2% DMSO control) was found to be 2 µg/mL (≈ 3.4 µM); in the assay on Botrtyis cinerea (Bc) (read-out: Concentration at 90% Inhibition Bc, Botrtyis cinerea, growth inhibition vs 2% DMSO control at 48 hours), 2 µg/mL (≈ 3.4 µM); in assay [1] (read-out: Concentration at 90% Inhibition Cg, Collectotrichum graminicola, growth inhibition at 48 hours vs 2% DMSO control), 0.4 µg/mL (≈ 0.68 µM); in assay [1] (read-out: Concentration at 90% Inhibition Cg, Collectotrichum graminicola, growth inhibition vs 2% DMSO control at 48 hours), 0.4 µg/mL (≈ 0.68 µM); with Diplodia maydis (Dm) (read-out: Concentration at 90% Inhibition Dm, Diplodia maydis, growth inhibition at 48 hours vs 2% DMSO control), 0.4 µg/mL (≈ 0.68 µM); with Diplodia maydis (Dm) (read-out: Concentration at 90% Inhibition Dm, Diplodia maydis, growth inhibition vs 2% DMSO control at 48 hours), 0.4 µg/mL (≈ 0.68 µM). Further, the IC90 in [2] was 0.08 µg/mL (≈ 0.136 µM); in [3] (read-out: Concentration at 90% Inhibition Fv, Fusarium virguliforme, growth inhibition at 48 hours vs 2% DMSO control) it was 0.4 µg/mL (≈ 0.68 µM); in assay [3] (read-out: Concentration at 90% Inhibition Fv, Fusarium virguliforme, growth inhibition vs 2% DMSO control at 48 hours), 0.4 µg/mL (≈ 0.68 µM); in [4] (read-out: Concentration at 90% Inhibition Pc, Phytophthora capsici, growth inhibition at 48 hours vs 2% DMSO control), 10 µg/mL (≈ 17 µM); in assay [4] (read-out: Concentration at 90% Inhibition Pc, Phytophthora capsici, growth inhibition vs 2% DMSO control at 48 hours), over 50 µg/mL; in the assay with Rhizoctonia solani (Rs) (read-out: Concentration at 90% Inhibition Rs, Rhizoctonia solani, mycelial plugs, growth inhibition at 48 hours vs 2% DMSO control), 0.4 µg/mL (≈ 0.68 µM). In addition, the IC90 in the assay with Rhizoctonia solani (Rs) (read-out: Concentration at 90% Inhibition Rs, Rhizoctonia solani, mycelial plugs, growth inhibition vs 2% DMSO control at 48 hours) is 0.08 µg/mL (≈ 0.136 µM); in the assay on Septoria tritici (St) (read-out: Concentration at 90% Inhibition St, Septoria tritici, growth inhibition at 48 hours vs 2% DMSO control) it was over 50 µg/mL; with Septoria tritici (St) (read-out: Concentration at 90% Inhibition St, Septoria tritici, growth inhibition vs 2% DMSO control at 48 hours) it was over 50 µg/mL. Moreover, the “Concentration at 90% Inhibition Fm” value in assay [2] (Fusarium moniliforme, growth inhibition at 48 hours vs 2% DMSO control) is on record as “AA (compound concentration of 0.08 ppm at 90% inhibition of fungal pathogens)”.

A word on the MIC: it is the least concentration at which growth counts as inhibited. With `COCCO[C@@H](Cn1c(=O)n([C@H](C)C(=O)NC(C)C)c(=O)c2c(C)c(-n3nccn3)sc21)c1cc(F)ccc1OC` [Compound I-67, (R)-2-(1-((R)-2-(5-fluoro-2-methoxyphenyl)-2-(2-methoxy-ethoxy)ethyl)-5-methyl-2,4-dioxo-6-(2H-1,2,3-triazol-2-yl)-1,4-dihydrothieno[2,3-d]pyrimidin-3(2H)-yl)-N-isopropylpropanamide], the IC50 lay in the range of 5 to 10 nM at human (hACC2) (Table 2a); 5 to 10 nM against human (hACC2) (Table 2b, additional results); 1 to 5 nM on fungal (fACC2) (Table 2a); 1 to 5 nM at fungal (fACC2) (Table 2b, additional results). Further, the MIC was 1.1 to 2 µg/mL (≈ 1.87 to 3.4 µM) in the assay on C. albicans (Table 3a); over 4.01 µg/mL in the assay on C. albicans (Table 3b (additional results)); 0.25 to 1 µg/mL (≈ 0.425 to 1.7 µM) in the assay with C. krusei (Table 3a); 2.01 to 4 µg/mL (≈ 3.41 to 6.8 µM) in the assay on C. krusei (Table 3b (additional results)); 1.1 to 2 µg/mL (≈ 1.87 to 3.4 µM) with C. parapsilosis (Table 3a); 1.01 to 2 µg/mL (≈ 1.72 to 3.4 µM) in the assay with C. parapsilosis (Table 3b (additional results)). For the same compound, the IC90 was 0.08 µg/mL (≈ 0.136 µM) with Botrtyis cinerea (Bc) (Botrtyis cinerea, growth inhibition vs 2% DMSO control at 48 hours, read-out: Concentration at 90% Inhibition Bc); 0.08 µg/mL (≈ 0.136 µM) in assay [1] (Collectotrichum graminicola, growth inhibition vs 2% DMSO control at 48 hours, read-out: Concentration at 90% Inhibition Cg); 0.08 µg/mL (≈ 0.136 µM) with Diplodia maydis (Dm) (Diplodia maydis, growth inhibition vs 2% DMSO control at 48 hours, read-out: Concentration at 90% Inhibition Dm); 0.08 µg/mL (≈ 0.136 µM) in assay [2] (Fusarium moniliforme, growth inhibition vs 2% DMSO control at 48 hours); 0.4 µg/mL (≈ 0.68 µM) in [3] (growth inhibition vs 2% DMSO control at 48 hours, read-out: Concentration at 90% Inhibition Fv); over 50 µg/mL in [4] (growth inhibition vs 2% DMSO control at 48 hours, read-out: Concentration at 90% Inhibition Pc). Further, the IC90 with Rhizoctonia solani (Rs) (mycelial plugs, growth inhibition vs 2% DMSO control at 48 hours, read-out: Concentration at 90% Inhibition Rs) amounted to 0.08 µg/mL (≈ 0.136 µM); in the assay on Septoria tritici (St) (Septoria tritici, growth inhibition vs 2% DMSO control at 48 hours, read-out: Concentration at 90% Inhibition St) it was 10 µg/mL (≈ 17 µM).

The values are drawn from patent US10800791B2, “Triazole ACC inhibitors and uses thereof” (Gilead Apollo, LLC, priority 2015, dated 2020).
